One assay relates to E. coli PBP1b. The experiment in a line: Bocillin FL competition binding assay (SDS-PAGE gel, membrane PBPs). On the set-up: species or system Escherichia coli. Particulars: 15 min. pre-incubation, membrane protein extracts, SDS-PAGE fluorescence scan. As for the experimental part: To determine the ability of test compounds to bind Penicillin Binding Proteins (PBPs), a competition binding assay using Bocillin FL (fluorescent derivative of penicillin V) was adapted from the classical method used to assess PBP potency of beta-lactams.
Penicillin binding proteins were isolated from Escherichia coli K12 by growth of Escherichia coli K12 from a single colony in 4 L of Luria-Bertani (LB) broth at 35° C. and 250 rpm to an OD600 nm of 0.5. The cells were harvested by centrifugation at 7,000×g for 10 min. at 4° C. Cells were resuspended and washed in 50 mM potassium phosphate pH 7.5. […] The membrane proteins are washed twice with 10 mM sodium phosphate pH 7, resuspended in a volume of 5 mL, quantitated by BCA assay, adjusted to 10 μg/mL and frozen at −80° C. until use.
The adapted Bocillin FL competition binding assay described herein incorporates a 15 min. pre-incubation of test compound with isolated PBPs to attempt to balance the difference in mechanism of inhibition between beta-lactams (largely irreversible covalent bond to active site Serine) and the boron-containing PBP inhibitor test compounds (reversible covalent bond to active site Serine). […] The SDS-PAGE gel, post-electrophoresis, is then washed in water to remove excess SDS for 10 minutes at room temperature and placed on the scanning bed of a GE Healthcare/Amersham Biosciences Storm 860 fluorescence scanner. […]

The subject of another assay is E. coli DH5α/pLBII. The experiment in a line: Broth microdilution MIC assay, empty vector control strain. Format: cell-based. Particulars: Escherichia coli, read-out: E. coli DH5α/pLBII Microbiological Activity (MIC). The procedure, abridged: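 CLSI broth microdilution in cation-supplemented Mueller-Hinton broth, 2-fold compound dilutions, 5×10^5 CFU/mL inoculum, 16-20 h at 37° C, MIC read visually as lowest concentration without growth. E. coli DH5α carries CTX-M15 on pLBII under Lac promoter, or empty pLBII as control.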

With `CCN1CCN(C(=O)NC(C(=O)N[C@H]2Cc3cccc(C(=O)O)c3OB2O)c2csc(N)n2)C(=O)C1=O` (stereo partly drawn) [Example 12, (3R)-3-(2-(2-aminothiazol-4-yl)-2-(4-ethyl-2,3-dioxopiperazine-1-carboxamido)acetamido)-2-hydroxy-3,4-dihydro-2H-benzo[e][1,2]oxaborinine-8-carboxylic acid], the “E. coli PBP1b Potency” value in the assay on E. coli PBP1b is on record as “C (C represents a potency of <64 μg/mL)”. Besides, the MIC in the assay with E. coli DH5α/pLBII was in the range of 8 to 16 µg/mL.

The values are drawn from US11332485B2, “Penicillin-binding protein inhibitors” (priority 2017, dated 2022).
